US8530465B2, “1, 2-disubstituted amido-anthraquinone derivatives, preparation method and application thereof” (National Defense Medical Center, priority 2010, dated 2013)

Tests used:
Format in all cases: cell-based, human
RPMI-8226 = test: NCI drug screen, RPMI-8226; settings: RPMI-8226 (Leukemia); 1.00E−5 Molar
Method: (§1) In brief, cellular protein levels were determined after 48 hours of drug exposure by sulforhodamine B colorimetry. Through the use of a time 0 cell control, the cell growth can be determined for each cell line thus allowing calculations of the 50% growth inhibitory concentration (GI50), the total growth inhibition (TGI), and the 50% lethal concentration (LC50). Comparison to plates not exposed to drug permits determination of concentration and times of exposure conferring 50% net growth inhibition (GI50), TGI, and 50% cell kill (LC50).
(§2) The screening system in United State National Cancer Institute (NCI) is consisted of 60 kinds of different human cancer cells, which can be used to assay the growth-inhibiting ability or cell toxicity of a compound against various cancer and tumor at a certain concentration.

SF-539 = test: NCI drug screen, SF-539; settings: SF-539 (CNS Cancer); 1.00E−5 Molar
Method: as §1, §2

U251 = test: NCI drug screen, U251; settings: U251 (CNS Cancer); 1.00E−5 Molar
Method: as §1, §2

M14 = test: NCI drug screen, M14; settings: M14 (Melanoma); 1.00E−5 Molar
Method: as §1, §2

OVCAR-4 = test: NCI drug screen, OVCAR-4; settings: OVCAR-4 (Ovarian Cancer); 1.00E−5 Molar
Method: as §1, §2

NCI drug screen, A489 = settings: A489 (Renal Cancer); 1.00E−5 Molar
Method: as §1, §2

TK-10 = test: NCI drug screen, TK-10; settings: TK-10 (Renal Cancer); 1.00E−5 Molar
Method: as §1, §2

MDA-MB-435 = test: NCI drug screen, MDA-MB-435; settings: MDA-MB-435 (Melanoma); 1.00E−5 Molar
Method: as §1, §2

H1299 = test: MTT assay, PhTERT-SEAP (H1299); settings: H1299; SEAP and MTT analysis
How it was run: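 Cultured cells received MTT for 4 h at 37 °C, then lysis buffer overnight at 37 °C. Optical density was read at 550 nm.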

## Cc1ccc(C(=O)Nc2ccc3c(c2NC(=O)c2ccc(C)cc2)C(=O)c2ccccc2C3=O)cc1 [CC-04, 1,2-bis-(4-methylbenzamido)-anthraquinone]
RPMI-8226
  Growth Percent: 101.77%
SF-539
  Growth Percent: 97.26%
U251
  Growth Percent: 91.73%
M14
  Growth Percent: 91.57%
OVCAR-4
  Growth Percent: 104.32%
NCI drug screen, A489
  Growth Percent: 124.08%
TK-10
  Growth Percent: 124.91%

## Cc1ccc(C(=O)Nc2c(NC(=O)CCl)ccc3c2C(=O)c2ccccc2C3=O)cc1 [CC-12, 1-(4-methylbenzamido)-2-(chloroacetamido)-anthraquinone]
SF-539
  Growth Percent: −31.42%
U251
  Growth Percent: −44.02%
M14
  Growth Percent: −22.68%
MDA-MB-435
  Growth Percent: 4.82%
OVCAR-4
  Growth Percent: 34.52%
NCI drug screen, A489
  Growth Percent: 123.78%
TK-10
  Growth Percent: 130.52%

## O=C(CCl)Nc1ccc2c(c1NC(=O)Cc1ccccc1)C(=O)c1ccccc1C2=O [CC-23, 1-[2-(phenyl)acetylamino]-2-(chloroacetamido)-anthraquinone]
SF-539
  Growth Percent: 107.09%
U251
  Growth Percent: 66.17%
M14
  Growth Percent: 87.10%
MDA-MB-435
  Growth Percent: 80.40%
OVCAR-4
  Growth Percent: 80.40%
NCI drug screen, A489
  Growth Percent: 91.79%
TK-10
  Growth Percent: 120.81%

## Cc1ccc(C(=O)Nc2c(NC(=O)CN3CCCC3)ccc3c2C(=O)c2ccccc2C3=O)cc1 [CC-38, 1-(4-methylbenzamido)-2-[2-(tetrahydro-1H-1-pyrrolyl)acetylamino]-anthra quinone]
SF-539
  Growth Percent: 81.29%
U251
  Growth Percent: 82.17%
M14
  Growth Percent: 88.01%
MDA-MB-435
  Growth Percent: 79.14%
OVCAR-4
  Growth Percent: 47.06%
NCI drug screen, A489
  Growth Percent: 68.12%
TK-10
  Growth Percent: 86.85%

## Cc1ccc(C(=O)Nc2c(NC(=O)CN3CCN(C)CC3)ccc3c2C(=O)c2ccccc2C3=O)cc1 [CC-43, 1-(4-methylbenzamido)-2-[2-(4-methylpiperazino)acetylamino]-anthraquinone]
H1299
  inhibitory activity among compounds CC-35 to CC-50: higher inhibitory activity
SF-539
  Growth Percent: 62.68%
U251
  Growth Percent: 22.38%
M14
  Growth Percent: −60.04%
MDA-MB-435
  Growth Percent: 11.15%
OVCAR-4
  Growth Percent: 57.11%
NCI drug screen, A489
  Growth Percent: 67.36%
TK-10
  Growth Percent: 101.93%
